Assay results published in patent US11932657B2, “Heterocyclic compound” (priority 2018, dated 2024).
pIC50: −log10 of the molar value.

Molecular target: T1, aryl hydrocarbon receptor (AhR) (Homo sapiens, UniProt P35869)
T1 construct: DRE-Luc HepG2 cells subcultured in a 225 cm^2 flask; endogenous in cells; host or cells: HepG2 (ATCC), stably transfected with the reporter hCYP1A1/pGL4.27 (DRE-Luc HepG2)
T1 sequence (P35869 11-848): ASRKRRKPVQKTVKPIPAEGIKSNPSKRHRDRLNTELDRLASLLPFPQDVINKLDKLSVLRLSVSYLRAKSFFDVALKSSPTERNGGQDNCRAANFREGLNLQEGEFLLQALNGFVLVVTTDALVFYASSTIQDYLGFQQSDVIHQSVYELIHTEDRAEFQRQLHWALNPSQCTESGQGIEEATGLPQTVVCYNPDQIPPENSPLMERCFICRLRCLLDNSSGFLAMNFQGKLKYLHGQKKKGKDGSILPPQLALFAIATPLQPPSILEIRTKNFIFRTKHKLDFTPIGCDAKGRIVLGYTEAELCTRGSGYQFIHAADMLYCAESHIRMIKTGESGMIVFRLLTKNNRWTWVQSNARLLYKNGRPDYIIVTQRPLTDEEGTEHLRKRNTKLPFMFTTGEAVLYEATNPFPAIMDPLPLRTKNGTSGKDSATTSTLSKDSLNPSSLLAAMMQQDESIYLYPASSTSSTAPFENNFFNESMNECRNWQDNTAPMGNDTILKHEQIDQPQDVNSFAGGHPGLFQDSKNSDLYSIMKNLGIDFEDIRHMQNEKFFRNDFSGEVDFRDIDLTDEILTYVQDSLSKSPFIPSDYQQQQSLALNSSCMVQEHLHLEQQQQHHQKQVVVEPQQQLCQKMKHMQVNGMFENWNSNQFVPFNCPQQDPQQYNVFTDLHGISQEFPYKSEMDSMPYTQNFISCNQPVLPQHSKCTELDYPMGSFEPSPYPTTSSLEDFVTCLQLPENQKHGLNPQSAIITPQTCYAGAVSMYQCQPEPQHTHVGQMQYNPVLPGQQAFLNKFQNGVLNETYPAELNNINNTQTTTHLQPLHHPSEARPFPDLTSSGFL
Experiment: AhR reporter gene assay (aryl hydrocarbon receptor antagonist activity, DRE-Luc HepG2 cells, TCDD-stimulated luciferase)
Format: cell-based
Settings: not given
Description: Test Example 1 (Aryl Hydrocarbon Receptor Antagonist Activity)
An expression vector, hCYP1A1/pGL4.27 was introduced into HepG2 cells (derived from American Type Culture Collection (ATCC)) that were seeded in 6-well plates (#3810-006 (Iwaki)) at 1.2×10^6 cells/well, using Lipofectamine 3000 (#100022050 (Invitrogen)). Referring to Garrion P M et al., Fundam Appl Toxicol, 30, 194 (1996), the vector hCYP1A1/pGL4.27 incorporated the human CYP1A1 promotor region including dioxin responsive element (DRE) region of the AhR binding region into the XhoI-BglII restriction enzyme site of pGL4.27 (#E8451 (Promega)). After 24 hours, medium-1 was replaced, and after 48 hours, the medium-1 containing hygromycin B (200 to 1000 μg/mL) was subjected to drug treatment. Culturing using the medium containing hygromycin B was continued for about 1 month to clone 24 clones showing drug resistance. A cell line showing high reporter activity was selected (DRE-Luc HepG2) from drug resistant lines using as an indicator luciferase activity (Dual-Glo Luciferase substrate, #E297A (Promega)) relative to an AhR agonist, 2,3,7,8-tetrachlorodibenzo-p-dioxin (TCDD) (#ED-901-B (CIL.)).
DRE-Luc HepG2 cells subcultured in a 225 cm^2 flask (#11-0005 (Iwaki)) were washed with PBS (#1419-144 (Gibco), Lot: 1896207), and thereto was added 8 mL of Trypsin-EDTA (0.05%) (#25300-054 (Gibco)). Thereafter, an excessive liquid was removed from the mixture, and the cells were stood at room temperature for 5 minutes. Thereto was added 10 mL of medium-2, the cells were recovered through a cell strainer (#352350 (Falcon), 70 μm), and the number of cells were then counted using a hemocytometer. A cell suspension was prepared at 3×10^5 cells/mL, 100 μL/well of the cell suspension was seeded into a 96-well white plate (#136101, F96 Microwell (Nunc)), and the cells were then cultured in a CO2 incubator (5% CO2, 37° C.). After 24 hours, the medium was aspirated, and thereto was added 100 μL of an assay medium solution including the compound of the present invention, and the cells were cultured in the CO2 incubator (5% CO2, 37° C.). After 24 hours, 11 μL of an assay medium solution including 5×10^−10 M TCDD (#ED-901-B (CIL.)) was added thereto and the cells were cultured in the CO2 incubator (5% CO2, 37° C.). After 24 hours, 50 μL of a reaction substrate (#E253B, Steady-Glo Luciferase substrate (Promega)) for Firefly Luciferase enzyme reaction was added to each well, and after 5 minute-shaking, the light emission intensity was measured with Wallac ARVO 1420sx (PerkinElmer).

Point of comparison: `CC1(C)COc2nc3c(NCCc4c[nH]c5ccccc45)nc(-c4cc(F)ccc4F)nc3n21` [Example 87], pIC50 7.42. Against it:
- C[C@@H]1C[S+]([O-])c2nc3c(NCCc4c[nH]c5ccccc45)nc(-c4cncc(F)c4)nc3n21 (stereo partly shown) [Example 108] — 0.97 log units higher, 8.39
- Cc1cccc(-c2cc(CCNc3nc(-c4cncc(F)c4)nc4c3nc3n4C(C)(C)CO3)ccc2O)c1 [Example 14] — 0.54 log units higher, 7.96
- CC1(C)CSc2nc3c(NCCc4ccc(O)c(-c5cccc(C#N)c5)c4)nc(-c4cncc(C#N)c4)nc3n21 [Example 60] — 1.95 log units higher, 9.37
- Cc1cncc(-c2nc(NCCc3ccc(O)c(-c4cc(C#N)ccc4F)c3)c3nc4n(c3n2)C(C)(C)CO4)c1 [Example 66] — 0.67 log units higher, 8.09
- Oc1ccc(CCNc2nc(-c3cncc(F)c3)nc3c2nc2n3CCCO2)cc1-c1ccccc1F [Example 144] — 0.95 log units higher, 8.37
- CC1(C)CSc2nc3c(NCCc4ccc(O)c(-c5cncc(F)c5)c4)nc(-c4cncc(F)c4)nc3n21 [Example 70] — 0.92 log units higher, 8.34
- CC1(C)CSc2nc3c(NCCc4ccc(O)cc4)nc(-c4cncc(F)c4)nc3n21 [Example 97] — 0.30 log units higher, 7.72
- Oc1ccc(CCNc2nc(-c3cncc(F)c3)nc3c2nc2n3CCCCS2)cc1-c1ccccc1F [Example 143] — 1.80 log units higher, 9.22
- Oc1ccc(CCNc2nc(-c3cncc(F)c3)nc3c2nc2n3CCCS2)cc1-c1ccccc1F [Example 145] — 1.47 log units higher, 8.89
- Oc1ccc(CCNc2nc(-c3cncc(F)c3)nc3c2nc2n3CCS2)cc1-c1ccccc1F [Example 142] — 1.63 log units higher, 9.05

Tested on: immortalized megakaryocyte line (SeV2-MKCL)
Experiment: Platelet production: static culturing of immortalized megakaryocyte line
Format: cell-based
Settings: compound final concentration 0.1 μM, static culturing 6 to 7 days, control (DMSO) set to 1; platelets = CD41, CD42b and CD42a-positive cells
Description: Test Example 2 (Platelet Production: Static Culturing)
The immortalized megakaryocyte line (SeV2-MKCL) obtained according to the method described in WO 2016/204256 was washed twice with D-PBS(−) and then cultured in medium not containing doxycycline to terminate forced expression. Culturing was implemented by seeding the cells at 1 mL/well in a 24-well plate (#662160 (Greiner Rio-One)) at a seeding density of 1×10^5 cells/mL followed by static culturing in the medium indicated below.
The medium was obtained by adding the following components to IMDM serving as the basal medium (concentrations indicate final concentrations).
Culturing was implemented under conditions of 37° C. and 5% CO2. At the same time, the compound of the present invention (final concentration 0.1 μM) or DMSO (control) was added and cultured for 6 to 7 days. Thereafter, the number of platelets (CD41, CD42b, and CD42a-positive cells) was measured. The measurement method was as shown below. The same procedure was performed with the control.
A portion of the culture supernatant was harvested 6 to 7 days after culturing to terminate gene expression, and suspended with the following antibodies to stain them. eFluor 450-labeled anti-CD42a antibody (#48-0428-42 (eBioscience)) PE-labeled anti-CD42b antibody (#303906 (BioLegend)) APC-labeled anti-CD41 antibody (#303710 (BioLegend)) The number of platelets was counted using FACSVerse manufactured by BD 30 minutes after the stain reaction. In the measurement of the number of platelets, the number of cells was corrected using Flow-count beads (#7547053 (Beckman Coulter)).
The number of platelets produced from one megakaryocyte cell was calculated based on the number of platelets in the sample obtained by the FACS measurement, and the result was defined as platelet production efficiency (PLT/MK) and used for evaluation of drug efficacy of the compound. In addition, the specific activity at the time when the platelet production efficiency of the control was set to 1 was indicated as fold increase.

Point of comparison: `Fc1cncc(-c2nc(NCCc3c[nH]c4ccccc34)c3nc4n(c3n2)CCCO4)c1` [Example 84], “Static (vs veh): fold increase of platelet production efficiency (PLT/MK)” value 13. Against it:
- CC1(C)COc2nc3c(NCCc4c[nH]c5ccccc45)nc(-c4cc(F)ccc4F)nc3n21 [Example 87] — lower, 3.9
- C[C@@H]1C[S+]([O-])c2nc3c(NCCc4c[nH]c5ccccc45)nc(-c4cncc(F)c4)nc3n21 (stereo partly shown) [Example 108] — lower, 6.6
- Cc1cccc(-c2cc(CCNc3nc(-c4cncc(F)c4)nc4c3nc3n4C(C)(C)CO3)ccc2O)c1 [Example 14] — lower, 7.9
- CC1(C)CSc2nc3c(NCCc4ccc(O)c(-c5cccc(C#N)c5)c4)nc(-c4cncc(C#N)c4)nc3n21 [Example 60] — lower, 3.4
- Cc1cncc(-c2nc(NCCc3ccc(O)c(-c4cc(C#N)ccc4F)c3)c3nc4n(c3n2)C(C)(C)CO4)c1 [Example 66] — lower, 4.8
- CC1(C)COc2nc3c(NCCc4c[nH]c5ccccc45)nc(-c4ccccc4F)nc3n21 [Example 113] — lower, 2.5
- CC1(C)COc2nc3c(NCCc4ccc(O)c(-c5ccc(O)cc5)c4)nc(-c4cncc(F)c4)nc3n21 [Example 19, 4-[2-[[2-(5-fluoropyridin-3-yl)-8,8-dimethyl-7H-purino[8,9-b][1,3]oxazol-4-yl]amino]ethyl]-2-(4-hydroxyphenyl)phenol] — lower, 2.8
- CC1(C)COc2nc3c(NCCc4c[nH]c5ccccc45)nc(-c4ccccc4)nc3n21 [Example 116] — lower, 2.5
- CC1(C)CCOc2nc3c(NCCc4c[nH]c5ccccc45)nc(-c4cncc(F)c4)nc3n21 [Example 89] — lower, 5.0
- Fc1cncc(-c2nc(NCCc3c[nH]c4ccccc34)c3nc4n(c3n2)CCCCS4)c1 [Example 107] — lower, 7.9
- CC1(C)COc2nc3c(NCCc4ccc5[nH]ccc5c4)nc(-c4cncc(F)c4)nc3n21 [Example 103] — lower, 3.1
- CC1(C)COc2nc3c(NCCc4ccc(O)c(-c5cncc(C#N)c5)c4)nc(-c4cncc(F)c4)nc3n21 [Example 75] — lower, 2.7
- Cc1cncc(-c2nc(NCCc3c[nH]c4ccccc34)c3nc4n(c3n2)C(C)(C)CO4)c1 [Example 83] — lower, 5.8
- CC1(C)COc2nc3c(NCCc4c[nH]c5ccccc45)nc(-c4ccc(F)cc4)nc3n21 [Example 114] — lower, 2.2
- Fc1cncc(-c2nc(NCCc3c[nH]c4ccccc34)c3nc4n(c3n2)CCS4)c1 [Example 105] — lower, 8.2
- C[C@@H]1CSc2nc3c(NCCc4c[nH]c5ccccc45)nc(-c4cncc(F)c4)nc3n21 [Example 102] — lower, 4.5
- CC1(C)COc2nc3c(NCCc4c[nH]c5ccccc45)nc(-c4ccc(F)c(F)c4)nc3n21 [Example 88] — lower, 3.1
- C[C@H]1CSc2nc3c(NCCc4c[nH]c5ccccc45)nc(-c4cncc(F)c4)nc3n21 [Example 106] — lower, 6.9
- Cc1[nH]c2ccccc2c1CCNc1nc(-c2cncc(F)c2)nc2c1nc1n2C(C)(C)CO1 [Example 104] — lower, 4.6
- CC1(C)COc2nc3c(NCCc4ccc(O)cc4)nc(-c4cncc(F)c4)nc3n21 [Example 80] — lower, 3.4
- CC1(C)COc2nc3c(NCCc4c[nH]c5ccccc45)nc(-c4ccnc(F)c4)nc3n21 [Example 100] — lower, 3.5
- CC1(C)COc2nc3c(NCCc4c[nH]c5ccccc45)nc(-c4cncc(F)c4)nc3n21 [Example 82] — lower, 5.0
- CC1(C)CCOc2nc3c(NCCc4ccc(O)cc4)nc(-c4cncc(F)c4)nc3n21 [Example 90] — lower, 2.6
- CC1(C)CSc2nc3c(NCCc4c[nH]c5ccccc45)nc(-c4cncc(F)c4)nc3n21 [Example 95] — lower, 2.4
- Cc1cc(CCNc2nc(-c3cncc(F)c3)nc3c2nc2n3C(C)(C)CO2)ccc1O [Example 51] — lower, 2.6
